Assay results taken from ChEMBL document CHEMBL4359866, “A computer-assisted discovery of novel potential anti-obesity compounds as selective carbonic anhydrase VA inhibitors” (Eur J Med Chem, 2019).
pKi: −log10 of the molar value.

Tests used:
Carbonic anhydrase 1 = Carbonic anhydrase 1 (Homo sapiens, UniProt P00915); experiment: Inhibition of recombinant human carbonic anhydrase 1 preincubated with enzyme for 15 mins by phenol red dye based stopped flow CO2 hydration assay
Carbonic anhydrase 2 = Carbonic anhydrase 2 (Homo sapiens, UniProt P00918); experiment: Inhibition of recombinant human carbonic anhydrase 2 preincubated with enzyme for 15 mins by phenol red dye based stopped flow CO2 hydration assay
[1] = target: Carbonic anhydrase 5A, mitochondrial (Homo sapiens, UniProt P35218); experiment: Inhibition of recombinant human carbonic anhydrase VA preincubated with enzyme for 15 mins by phenol red dye based stopped flow CO2 hydration assay
Carbonic anhydrase 5A, mitochondrial, sequence (P35218 whole entry): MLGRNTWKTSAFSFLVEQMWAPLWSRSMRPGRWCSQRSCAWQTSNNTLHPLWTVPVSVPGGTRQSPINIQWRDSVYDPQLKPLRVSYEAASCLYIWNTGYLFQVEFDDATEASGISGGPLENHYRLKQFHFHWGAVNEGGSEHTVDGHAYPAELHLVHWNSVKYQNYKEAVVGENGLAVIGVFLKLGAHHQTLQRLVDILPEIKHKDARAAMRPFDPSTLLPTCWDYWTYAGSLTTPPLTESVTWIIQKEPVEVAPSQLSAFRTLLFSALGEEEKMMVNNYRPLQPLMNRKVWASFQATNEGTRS

Carbonic anhydrase 1, sequence (P00915 whole entry): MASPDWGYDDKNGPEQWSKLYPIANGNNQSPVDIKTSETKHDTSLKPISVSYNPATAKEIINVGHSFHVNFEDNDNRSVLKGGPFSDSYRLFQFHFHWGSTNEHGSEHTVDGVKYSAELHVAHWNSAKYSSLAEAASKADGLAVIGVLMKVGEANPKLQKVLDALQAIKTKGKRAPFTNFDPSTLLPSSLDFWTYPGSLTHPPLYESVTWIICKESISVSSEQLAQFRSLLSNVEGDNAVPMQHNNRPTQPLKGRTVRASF

| pKi (Carbonic anhydrase 1) | pKi (Carbonic anhydrase 2) | pKi [1] | SMILES |
| --- | --- | --- | --- |
| < 5.00 | < 5.00 |  | CC(=O)c1cc(O)cc(O)c1 |
| < 5.00 | < 5.00 | 6.46 | NC(=O)c1cn(Cc2c(F)cccc2F)nn1 [RUFINAMIDE] |
| < 5.00 | < 5.00 | 6.88 | COc1cc2nccc(Oc3ccc(NC(=O)NC4CC4)c(Cl)c3)c2cc1C(N)=O [LENVATINIB] |
| < 5.00 | < 5.00 | 5.06 | O=C(Cc1nnc(O)nc1O)N/N=C/c1c(O)ccc2ccccc12 |
| < 5.00 | < 5.00 |  | COc1cc(CC(=O)O)ccc1OS(=O)(=O)O |

Second part, the compound before the results:

| SMILES | pKi (Carbonic anhydrase 1) | pKi (Carbonic anhydrase 2) | pKi [1] |
| --- | --- | --- | --- |
| Nc1nc(=O)c2nc(CNc3ccc(C(=O)N[C@H](CCC(=O)O)C(=O)O)cc3)cnc2[nH]1 | < 5.00 | < 5.00 | 5.01 |
| O=C(CCNc1n[nH]c(=O)[nH]c1=O)N/N=C\c1c(F)cccc1Cl | < 5.00 | < 5.00 |  |
| Nc1ccc2c(n1)[nH]c1ccccc12 | < 5.00 | < 5.00 |  |
| O=C(COc1ccc2c3c(c(=O)oc2c1)CCC3)c1ccc(Cl)cc1 | < 5.00 | < 5.00 | < 5.00 |
| O=c1[nH]nc(SCc2ccc(Cl)cc2Cl)c(=O)[nH]1 | < 5.00 | < 5.00 |  |
| Nc1nc(F)nc2c1ncn2[C@@H]1O[C@H](COP(=O)(O)O)[C@@H](O)[C@@H]1O [FLUDARABINE PHOSPHATE] | < 5.00 | < 5.00 | 6.88 |
| O=C(CSc1ccncc1)N[C@@H]1C(=O)N2C(C(=O)O)=C(CO)CS[C@H]12 | < 5.00 | < 5.00 |  |
